From ChEMBL document CHEMBL1134487, “Design, synthesis, and biological evaluation of analogues of the antitumor agent, 2-(4-[(7-chloro-2-quinoxalinyl)oxy]phenoxy)propionic acid (XK469)” (2001)
Active and inactive are the calls of the source. The rule behind the calls is not given here.

Key:
Mus musculus [1] = experiment: In vivo antitumor activity against tumor […]; Inactive; type: functional, organism-based
Mus musculus [2] = experiment: In vivo activity tested against C3H mice bearing mammary adenocarcinoma -17/ADR tumor measured as activity rating at 301 mg/kg (po); type: functional
Mus musculus [3] = experiment: In vivo activity tested against C3H mice bearing mammary adenocarcinoma -17/ADR tumor measured as % treated/control calculated at 301 mg/kg (po); type: functional
Mus musculus [4] = experiment: In vivo activity tested against C3H mice bearing mammary adenocarcinoma -17/ADR tumor measured as log Kill value was based on tumors that grew at 301 mg/kg (po); type: functional, organism-based; parameters: dose 301 mg/kg
Mus musculus [5] = experiment: In vivo activity tested against C3H mice bearing mammary adenocarcinoma -17/ADR tumor measured as body weight loss at 301 mg/kg (po); type: functional
Mus musculus [6] = experiment: In vivo activity against transplanted Mam-17 tumors of mice; type: functional, organism-based
Mus musculus [7] = experiment: In vivo activity against iv transplanted Leukemia L1210 tumors of mice; type: functional, organism-based
Mus musculus [8] = experiment: In vivo activity against transplanted Squam lung-LC12 tumors of mice; type: functional, organism-based
Mus musculus [9] = experiment: In vivo activity against transplanted Mam-16/C tumors of mice; type: functional, organism-based
Mus musculus [10] = experiment: In vivo activity against transplanted Panc-03 tumors of mice; type: functional, organism-based
Mus musculus [11] = experiment: In vivo activity against transplanted Mam-17/Adr tumors of mice; type: functional, organism-based
Mus musculus [12] = experiment: In vivo activity against transplanted colon-51 tumors of mice; type: functional, organism-based
Mus musculus [13] = experiment: In vivo activity against transplanted colon-38 tumors of mice; type: functional, organism-based
Mus musculus [14] = experiment: In vivo activity against transplanted Mam-16/C/ Taxol tumors of mice; Not active; type: functional, organism-based
Mus musculus [15] = experiment: In vivo activity against iv transplanted AML Leukemia 1498 tumors of mice; Not active; type: functional, organism-based
Mus musculus [16] = experiment: In vivo activity against transplanted Mel-B16 tumors of mice; type: functional, organism-based
Mus musculus [17] = experiment: In vivo activity against transplanted Panc-02 tumors of mice; type: functional, organism-based
Mus musculus [18] = experiment: In vivo activity against transplanted Mam-16/C/Adr tumors of mice; type: functional, organism-based
Mus musculus [19] = experiment: In vivo activity against transplanted colon-26 tumors of mice; type: functional, organism-based
Mus musculus [20] = experiment: In vivo activity against iv transplanted AML Leukemia 1498 tumors of mice; type: functional, organism-based
Mus musculus [21] = experiment: In vivo activity against C3H mice bearing panc-03 murine tumor; Inactive; type: functional, organism-based
Mus musculus [22] = experiment: In vivo activity against transplanted Mam-16/C/ Taxol tumors of mice; type: functional, organism-based
Mus musculus [23] = organism: Mus musculus; experiment: […] activity against C3H mice bearing panc-03 murine tumor; Inactive; type: functional, organism-based
Mus musculus [24] = experiment: In vivo activity against transplanted Mam-16/C/Taxol tumors of mice; type: functional, organism-based
Mus musculus [25] = experiment: In vivo activity tested against C3H mice bearing panc-03 murine tumor at a dose of 330mg/kg, measured as % treated/control; type: functional
Mus musculus [26] = experiment: In vivo activity tested against C3H mice bearing panc-03 murine tumor at a dose of 330mg/kg, measured as activity rating; type: functional
Mus musculus [27] = experiment: In vivo activity against transplanted Mam-16/C/Adr tumors of mice; Not active; type: functional, organism-based
Mus musculus [28] = experiment: In vivo activity against transplanted colon-26 tumors of mice; Not active; type: functional, organism-based
Mus musculus [29] = experiment: In vivo activity against transplanted Mam-17 tumors of mice; Not active; type: functional, organism-based
Mus musculus [30] = experiment: In vivo activity against transplanted Mam-17/Adr tumors of mice; Not active; type: functional, organism-based
Mus musculus [31] = experiment: In vivo activity against iv transplanted Leukemia L1210 tumors of mice; Not active; type: functional, organism-based

Molecule	Log kill (Mus musculus [6])	Log kill (Mus musculus [7])	Log kill (Mus musculus [8])	Log kill (Mus musculus [9])	Log kill (Mus musculus [10])	Log kill (Mus musculus [11])	Log kill (Mus musculus [12])	Log kill (Mus musculus [13])	Log kill (Mus musculus [16])	Log kill (Mus musculus [17])	Log kill (Mus musculus [18])	Log kill (Mus musculus [19])	also measured
CC(Oc1cnc2ccc(Cl)cc2n1)C(=O)O (stereo not drawn)													NA (Mus musculus [1]): inactive
C[C@@H](Oc1ccc(Oc2cnc3ccc(Cl)cc3n2)cc1)C(=O)O [R(+)XK469]													Activity rating (Mus musculus [2]): >2.8; T/C (Mus musculus [3]): 2%; Log kill (Mus musculus [4]): 2.9; Body weight loss (Mus musculus [5]): -8%
CISPLATIN	2.8	2.9	> 2.8	1.2	1.9	> 2.8	1.9	0.7	1.9	< 0.7	1.2	1.9	NA (Mus musculus [14]): inactive; NA (Mus musculus [15]): inactive
O=NN(CCCl)C(=O)NCCCl	< 0.7	> 5	1.2	< 0.7	< 0.7	< 0.7	1.9	< 0.7	> 2.8	< 0.7	0.7	> 2.8	NA (Mus musculus [14]): inactive; NA (Mus musculus [15]): inactive
CC(Oc1ccc(Sc2cnc3ccc(Cl)cc3n2)cc1)C(=O)O (stereo not drawn)													NA (Mus musculus [1]): inactive
O=P1(N(CCCl)CCCl)NCCCO1 (stereo not drawn)	2.8	4.9	> 2.8	2.8	1.9	2.8	1.9	0.7	1.9	< 0.7	> 2.8	1.9	NA (Mus musculus [14]): inactive; Log kill (Mus musculus [20]): > 2.8
CC(Oc1ccc(Oc2cnc3ccc(Cl)cc3n2)cc1)C(=O)NO (stereo not drawn)													NA (Mus musculus [21]): inactive
CC(Oc1ccc(Nc2cnc3ccc(Cl)cc3n2)cc1)C(=O)O (stereo not drawn)													NA (Mus musculus [1]): inactive
CC(=O)O[C@H]1C(=O)[C@@]2(C)[C@H]([C@H](OC(=O)c3ccccc3)[C@]3(O)C[C@H](OC(=O)[C@H](O)[C@@H](NC(=O)c4ccccc4)c4ccccc4)C(C)=C1C3(C)C)[C@]1(OC(C)=O)CO[C@@H]1C[C@@H]2O	> 2.8	< 1	< 0.7	> 2.8	> 2.8	< 0.7	1.2	> 2.8	0.7	< 0.7	< 0.7	0.7	Log kill (Mus musculus [20]): < 0.7; Log kill (Mus musculus [22]): < 0.7
CC[C@]1(O)C[C@@H]2CN(CCc3c([nH]c4ccccc34)[C@@](C(=O)OC)(c3cc4c(cc3OC)N(C)[C@H]3[C@@](O)(C(=O)OC)[C@H](OC(C)=O)[C@]5(CC)C=CCN6CC[C@]43[C@@H]65)C2)C1	< 0.7	1.9	< 0.7	1.9	< 0.7	< 0.7	< 0.7	2.8	< 0.7	< 0.7	< 0.7	< 0.7	Log kill (Mus musculus [20]): < 0.7; Log kill (Mus musculus [22]): < 0.7
O=c1[nH]cc(F)c(=O)[nH]1	1.2	4.9	< 0.7	2.8	1.2	< 0.7	< 0.7	2.8	1.9	< 0.7	2.8	1.9	NA (Mus musculus [14]): inactive; Log kill (Mus musculus [20]): 1.2
CC(Oc1ccc(Oc2cnc3ccc(N)cc3n2)cc1)C(=O)O (stereo not drawn)													NA (Mus musculus [23]): inactive
CC(Oc1ccc(-c2ccc(Oc3cnc4ccc(Cl)cc4n3)cc2)cc1)C(=O)O (stereo not drawn)													NA (Mus musculus [1]): inactive
COc1cccc2c1C(=O)c1c(O)c3c(c(O)c1C2=O)C[C@@](O)(C(=O)CO)C[C@@H]3O[C@H]1C[C@H](N)[C@H](O)[C@H](C)O1	> 2.8	1.9	> 2.8	> 2.8	2.8	< 0.7	0.7	1.9	0.7	< 0.7	0.7	0.7	Log kill (Mus musculus [20]): > 2.8; Log kill (Mus musculus [24]): 2.8
C[C@H](Oc1ccc(Oc2cnc3ccc(Cl)cc3n2)cc1)C(=O)O													Activity rating (Mus musculus [2]): >2.8; T/C (Mus musculus [3]): 0%; Log kill (Mus musculus [4]): 2.7; Body weight loss (Mus musculus [5]): -3%
CC(C#N)Oc1ccc(Oc2cnc3ccc(Cl)cc3n2)cc1 (stereo not drawn)													NA (Mus musculus [23]): inactive
CC(Oc1cccc(Oc2cnc3ccc(Cl)cc3n2)c1)C(=O)O (stereo not drawn)													T/C (Mus musculus [25]): 100%; Activity rating (Mus musculus [26]): <0.7
COc1cc([C@@H]2c3cc4c(cc3[C@@H](O[C@@H]3O[C@@H]5CO[C@@H](C)O[C@H]5[C@H](O)[C@H]3O)[C@H]3COC(=O)[C@H]23)OCO4)cc(OC)c1O	1.9	> 5	> 2.8	2.8	1.9	< 0.7	0.7	1.9	< 0.7	< 0.7	< 0.7	< 0.7	NA (Mus musculus [15]): inactive; Log kill (Mus musculus [22]): 1.2
CC[C@@]1(O)C(=O)OCc2c1cc1n(c2=O)Cc2cc3ccccc3nc2-1			< 0.7	2.8	> 2.8		1.2	1.2	1.2	< 0.7			NA (Mus musculus [27]): inactive; NA (Mus musculus [14]): inactive; NA (Mus musculus [15]): inactive; NA (Mus musculus [28]): inactive; NA (Mus musculus [29]): inactive; NA (Mus musculus [30]): inactive; NA (Mus musculus [31]): inactive
Nc1ccn([C@@H]2O[C@H](CO)[C@@H](O)[C@@H]2O)c(=O)n1	1.9	> 5	< 0.7	1.9	< 0.7	2.8	< 0.7	1.9	< 0.7	< 0.7		< 0.7	NA (Mus musculus [27]): inactive; NA (Mus musculus [14]): inactive; Log kill (Mus musculus [20]): > 2.8
CC(Oc1ccccc1Oc1cnc2ccc(Cl)cc2n1)C(=O)O (stereo not drawn)													NA (Mus musculus [1]): inactive
